According to patent publication US5821061A, “Method and reagent for detecting a ligand in a sample” (Toyo Boseki Kabushiki Kaisha, priority 1995, dated 1998):

How the values were obtained:
[1] = system: alkaline phosphatase of Bacillus badius TE3597; assay: Substrate specificity of the alkaline phosphatase of Bacillus badius TE3597; type: biochemical; details: enzyme of Bacillus badius TE3597; for Relative Activity: substrate specificity, p-nitrophenyl phosphate = 100
[2] = system: alkaline phosphatase of Bacillus badius TE3593; assay: Substrate specificity of the alkaline phosphatase of Bacillus badius TE3593; type: biochemical; details: enzyme of Bacillus badius TE3593; for Relative Activity: substrate specificity, p-nitrophenyl phosphate = 100
[3] = system: alkaline phosphatase of Bacillus badius TE3592; assay: Substrate specificity of the alkaline phosphatase of Bacillus badius TE3592; type: biochemical; details: enzyme of Bacillus badius TE3592; for Relative Activity: substrate specificity, p-nitrophenyl phosphate = 100
[4] = literature; temperature not given; cited from earlier work
[5] = literature; cited from earlier work

Molecule	Substrate specificity (acts on) [1]	Relative Activity [1]	Substrate specificity (acts on) [2]	Relative Activity [2]	Substrate specificity (acts on) [3]	Relative Activity [3]	Specific activity [4] [U/mg]	Stability (in words) [5]
O=P(O)(O)OCC(O)CO (racemic) [DL-α-Glycerophosphate]	acts on	67.0	acts on	71.4	acts on	37.9		
O=P(O)(O)OC1O[C@H](CO)[C@@H](O)[C@H](O)[C@H]1O (stereo partly drawn) [Glucose-1-phosphate]	acts on	25.0		1.44		0		
O=P(O)(O)OC[C@H]1OC(O)[C@H](O)[C@@H](O)[C@@H]1O (stereo partly drawn) [Glucose-6-phosphate]	acts on	34.5	acts on	44.3	acts on	14.8		
NC(=O)c1ccc[n+]([C@@H]2O[C@H](COP(=O)([O-])OP(=O)(O)OC[C@H]3O[C@@H](n4cnc5c(N)ncnc54)[C@H](OP(=O)(O)O)[C@@H]3O)[C@@H](O)[C@H]2O)c1 [NADP]	acts on	15.4	acts on	90.5	acts on	15.4		
NCCOP(=O)(O)O [Phosphoethanolamine]	acts on	67.0	acts on	73.8	acts on	44.4		
O=P(O)(O)OC(CO)CO [β-Glycerophosphate]	acts on	67.5	acts on	78.1	acts on	49.7		
alkaline phosphatase derived from Escherichia coli: alkaline phosphatase derived from Escherichia coli, used for dephosphorylation in molecular biology							60	good stability
